According to patent US20080014278A1, “METAL-CONTAINING FORMULATIONS AND METHODS OF USE” (priority 2006, published 2008):

What was measured:
[1] = tested on: Staphylococcus epidermidis; assay: MIC assay (microdilution); format: cell-based
B. multivorans = assay: Minimal bactericidal concentration (MBC) assay; format: cell-based, Burkholderia multivorans
Protocol: (§1) Minimal bactericidal concentration (MBC) assay—Overnight-grown MIC plates, prepared as described in Example 16, were evaluated to determine the MIC. Culture was then sampled from wells at and near the MIC using sterile inoculating loops, and transferred to fresh MHA plates to determine if viable bacteria remained. […] The MBC was determined as the well in the MIC plate which contained the lowest concentration of silver yielding no bacterial growth on the MHA plate.

Ser. marcescens = assay: Minimal bactericidal concentration (MBC) assay; format: cell-based, Serratia marcescens
Protocol: as §1

E. coli = assay: Minimal bactericidal concentration (MBC) assay; format: cell-based, Escherichia coli
Protocol: as §1

[2] = tested on: Mycobacterium tuberculosis H37Ra; format: cell-based
Proteus mirabilis = assay: MIC assay (microdilution); format: cell-based; conditions: Prot. mirabilis NP405
Prot. mirabilis = assay: Minimal bactericidal concentration (MBC) assay; format: cell-based, Proteus mirabilis; conditions: Prot. mirabilis NP405
Protocol: as §1

K. pneumoniae = assay: Minimal bactericidal concentration (MBC) assay; format: cell-based, Klebsiella pneumoniae
Protocol: as §1

Serratia marcescens = assay: MIC assay (microdilution); format: cell-based
Staph epidermidis = assay: Minimal bactericidal concentration (MBC) assay; format: cell-based, Staphylococcus epidermidis
Protocol: as §1

Staph. aureus = assay: Minimal bactericidal concentration (MBC) assay; format: cell-based, Staphylococcus aureus
Protocol: as §1

Citrobacter freundii = assay: MIC assay (microdilution); format: cell-based; conditions: C. freundii NP410
Klebsiella pneumoniae = assay: MIC assay (microdilution); format: cell-based
Enterobacter cloacae = assay: MIC assay (microdilution); format: cell-based; conditions: Enterobacter cloacae
Ps. aeruginosa = assay: Minimal bactericidal concentration (MBC) assay; format: cell-based, Pseudomonas aeruginosa
Protocol: as §1

Strep. pyogenes = assay: Minimal bactericidal concentration (MBC) assay; format: cell-based, Streptococcus pyogenes
Protocol: as §1

Streptococcus pneumoniae = assay: MIC assay (microdilution); format: cell-based; conditions: lactate solutions, nanocrystalline silver: range for 12 samples
Escherichia coli = assay: MIC assay (microdilution); format: cell-based
Burkholderia dolosa = assay: MIC assay (microdilution); format: cell-based
C. freundii = assay: Minimal bactericidal concentration (MBC) assay; format: cell-based, Citrobacter freundii; conditions: C. freundii NP410
Protocol: as §1

Burkholderia multivorans = assay: MIC assay (microdilution); format: cell-based
Streptococcus pyogenes = assay: MIC assay (microdilution); format: cell-based
Pseudomonas aeruginosa = assay: MIC assay (microdilution); format: cell-based
B dolosa = assay: Minimal bactericidal concentration (MBC) assay; format: cell-based, Burkholderia dolosa
Protocol: as §1

Staphylococcus aureus = assay: MIC assay (microdilution); format: cell-based
[3] = Ser. marcescens NP402, second entry
[4] = Ser. marcescens NP408, second entry
[5] = K. pneumoniae NP403, second entry

## O=[N+]([O-])[O-].[Ag+] [AgNO3, silver nitrate]
[1]; Staph epidermidis 12228
  MIC: 3 parts silver per million
[1]; Staph epidermidis NP136
  MIC: 3 parts silver per million
[1]; lactate solutions, S. epiderm (ATCC), nanocrystalline silver: range for 12 samples
  MIC: 3 µg/mL
B. multivorans; B. multivorans B1
  MBC: 3 parts silver per million
B. multivorans; B. multivorans B2
  MBC: 3 parts silver per million
B. multivorans; B. multivorans B4
  MBC: 3 parts silver per million
Ser. marcescens; Ser. marcescens NP402
  MBC: 6 parts silver per million
Ser. marcescens; [3]
  MBC: 6 parts silver per million
Ser. marcescens; Ser. marcescens NP408
  MBC: 6 parts silver per million
Ser. marcescens; [4]
  MBC: 11 parts silver per million
E. coli; E. coli 8739
  MBC: 0.4 parts silver per million
E. coli; E. coli 43745
  MBC: 0.4 parts silver per million
E. coli; E. coli NP412
  MBC: 1 parts silver per million
[2]
  MIC: 2.5 μg/ml silver
Proteus mirabilis
  MIC: 6 parts silver per million
Prot. mirabilis
  MBC: 13 parts silver per million
K. pneumoniae; K. pneumoniae NP401
  MBC: 3 parts silver per million
K. pneumoniae; K. pneumoniae NP403
  MBC: 6 parts silver per million
K. pneumoniae; [5]
  MBC: 3 parts silver per million
K. pneumoniae; K. pneumoniae NP406
  MBC: 1 parts silver per million
Serratia marcescens; Ser. marcescens NP402
  MIC: 6 parts silver per million
Serratia marcescens; [3]
  MIC: 6 parts silver per million
Serratia marcescens; Ser. marcescens NP408
  MIC: 6 parts silver per million
Serratia marcescens; [4]
  MIC: 11 parts silver per million
Serratia marcescens; Serratia marcescens, aerobic +
  MIC: 6 µg/mL
Serratia marcescens; Serratia marcescens, aerobic − (anaerobic)
  MIC: 13 µg/mL
Staph epidermidis; Staph epidermidis 12228
  MBC: 3 parts silver per million
Staph epidermidis; Staph epidermidis NP136
  MBC: 3 parts silver per million
Staph. aureus; Staph. aureus 6538
  MBC: 6 parts silver per million
Staph. aureus; Staph. aureus 700699
  MBC: 6 parts silver per million
Staph. aureus; Staph. aureus NP101
  MBC: 11 parts silver per million
Staph. aureus; Staph. aureus NP102
  MBC: 6 parts silver per million
Staph. aureus; Staph. aureus NP103
  MBC: 6 parts silver per million
Citrobacter freundii
  MIC: 3 parts silver per million
Klebsiella pneumoniae; K. pneumoniae NP401
  MIC: 3 parts silver per million
Klebsiella pneumoniae; K. pneumoniae NP403
  MIC: 6 parts silver per million
Klebsiella pneumoniae; [5]
  MIC: 6 parts silver per million
Klebsiella pneumoniae; K. pneumoniae NP406
  MIC: 1 parts silver per million
Klebsiella pneumoniae; Klebsiella pneumoniae, aerobic +
  MIC: 3 µg/mL
Klebsiella pneumoniae; Klebsiella pneumoniae, aerobic − (anaerobic)
  MIC: 3 µg/mL
Enterobacter cloacae; aerobic +
  MIC: 13 µg/mL
Enterobacter cloacae; aerobic − (anaerobic)
  MIC: 25 µg/mL
Ps. aeruginosa; Ps. aeruginosa 27317
  MBC: 3 parts silver per million
Ps. aeruginosa; Ps. aeruginosa NP201
  MBC: 3 parts silver per million
Ps. aeruginosa; Ps. aeruginosa NP204
  MBC: 3 parts silver per million
Ps. aeruginosa; Ps. aeruginosa NP206
  MBC: 1 parts silver per million
Strep. pyogenes; Strep. pyogenes NP303
  MBC: 10 parts silver per million
Strep. pyogenes; Strep. pyogenes NP304
  MBC: 21 parts silver per million
Strep. pyogenes; Strep. pyogenes NP306
  MBC: 21 parts silver per million
Streptococcus pneumoniae; S. pneumo (clin 314)
  MIC: 11 µg/mL
Streptococcus pneumoniae; S. pneumo (clin 315)
  MIC: 21 µg/mL
Escherichia coli; E. coli 8739
  MIC: 0.4 parts silver per million
Escherichia coli; E. coli 43745
  MIC: 1 parts silver per million
Escherichia coli; E. coli NP412
  MIC: 1 parts silver per million
Escherichia coli; lactate solutions, E. coli (ATCC), nanocrystalline silver: range for 12 samples
  MIC: 3 µg/mL
Burkholderia dolosa; B dolosa A3
  MIC: 2 parts silver per million
Burkholderia dolosa; B dolosa A4
  MIC: 2 parts silver per million
C. freundii
  MBC: 3 parts silver per million
Burkholderia multivorans; B. multivorans B1
  MIC: 3 parts silver per million
Burkholderia multivorans; B. multivorans B2
  MIC: 3 parts silver per million
Burkholderia multivorans; B. multivorans B4
  MIC: 2 parts silver per million
Streptococcus pyogenes; Strep. pyogenes NP303
  MIC: 3 parts silver per million
Streptococcus pyogenes; Strep. pyogenes NP304
  MIC: 6 parts silver per million
Streptococcus pyogenes; Strep. pyogenes NP306
  MIC: 6 parts silver per million
Streptococcus pyogenes; lactate solutions, S. pyog (clin. 303), nanocrystalline silver: range for 12 samples
  MIC: 3 µg/mL
Streptococcus pyogenes; lactate solutions, S. pyog (clin. 304), nanocrystalline silver: range for 12 samples
  MIC: 5 µg/mL
Pseudomonas aeruginosa; P. aeruginosa NP212, formulation type Lactate
  MIC: 2 ppm
Pseudomonas aeruginosa; P. aeruginosa NP212, formulation type Water/Lecithin
  MIC: 3 ppm
Pseudomonas aeruginosa; P. aeruginosa NP212, formulation type Water/PVA
  MIC: 3 ppm
Pseudomonas aeruginosa; P. aeruginosa NP213, Lactate
  MIC: 1 ppm
Pseudomonas aeruginosa; P. aeruginosa NP213, Water/Lecithin
  MIC: 1 ppm
Pseudomonas aeruginosa; P. aeruginosa NP213, Water/PVA
  MIC: 1 ppm
Pseudomonas aeruginosa; P. aeruginosa NP214, Lactate
  MIC: 1 ppm
Pseudomonas aeruginosa; P. aeruginosa NP214, Water/Lecithin
  MIC: 1 ppm
Pseudomonas aeruginosa; P. aeruginosa NP214, Water/PVA
  MIC: 3 ppm
Pseudomonas aeruginosa; Ps. aeruginosa 9027
  MIC: 1 parts silver per million
Pseudomonas aeruginosa; Ps. aeruginosa 27317
  MIC: 2 parts silver per million
Pseudomonas aeruginosa; Ps. aeruginosa NP201
  MIC: 1 parts silver per million
Pseudomonas aeruginosa; Ps. aeruginosa NP204
  MIC: 1 parts silver per million
Pseudomonas aeruginosa; Ps. aeruginosa NP206
  MIC: 1 parts silver per million
Pseudomonas aeruginosa; lactate solutions, P. aerug (ATCC), nanocrystalline silver: range for 12 samples
  MIC: 3 µg/mL
Pseudomonas aeruginosa; lactate solutions, P. aerug. (clin.), nanocrystalline silver: range for 12 samples
  MIC: 3 µg/mL
B dolosa; B dolosa A3
  MBC: 3 parts silver per million
B dolosa; B dolosa A4
  MBC: 2 parts silver per million
Staphylococcus aureus; Staph aureus NP101, Lactate
  MIC: 9 ppm
Staphylococcus aureus; Staph aureus NP101, Water/Lecithin
  MIC: 11 ppm
Staphylococcus aureus; Staph aureus NP101, Water/PVA
  MIC: 11 ppm
Staphylococcus aureus; Staph aureus NP102, Lactate
  MIC: 9 ppm
Staphylococcus aureus; Staph aureus NP102, Water/Lecithin
  MIC: 11 ppm
Staphylococcus aureus; Staph aureus NP102, Water/PVA
  MIC: 11 ppm
Staphylococcus aureus; Staph aureus NP103, Lactate
  MIC: 9 ppm
Staphylococcus aureus; Staph aureus NP103, Water/Lecithin
  MIC: 11 ppm
Staphylococcus aureus; Staph aureus NP103, Water/PVA
  MIC: 11 ppm
Staphylococcus aureus; Staph. aureus 6538
  MIC: 6 parts silver per million
Staphylococcus aureus; Staph. aureus 700699
  MIC: 3 parts silver per million
Staphylococcus aureus; Staph. aureus NP101
  MIC: 6 parts silver per million
Staphylococcus aureus; Staph. aureus NP102
  MIC: 6 parts silver per million
Staphylococcus aureus; Staph. aureus NP103
  MIC: 6 parts silver per million
Staphylococcus aureus; lactate solutions, S. aureus (ATCC), nanocrystalline silver: range for 12 samples
  MIC: 11 µg/mL
Staphylococcus aureus; lactate solutions, S. aureus (clin.), nanocrystalline silver: range for 12 samples
  MIC: 5 µg/mL
